Source: patent US6084072A, “Purified lectin and methods of use” (The Regents of the University of Michigan, priority 1993, dated 2000)

Biological target: amaranthin (Amaranthus caudatus, UniProt Q71QF2)
Experiment: Hapten inhibition of amaranthin/asialo-ovine submaxillary mucin precipitation
Type: binding
Conditions: for Relative Inhibition potency ACA: N-Acetylgalactosamine = 1
Procedure: Precipitation assays were conducted in 1.5 ml centrifuge tubes by the method of So and Goldstein. Indicated amounts of glycoprotein were added to 80 μg of amaranthin, and the total volume was adjusted to 250 μl with phosphate buffered saline. The tubes were incubated at 37° C. and then kept at 4° C. for 2 days. The precipitates were centrifuged, washed with cold Phosphate buffered saline, dissolved in 0.05 N NaOH and analyzed for protein by the method of Lowery et al. using bovine serum albumin as the standard. Hapten inhibition assays were carried out using 80 μg of amaranthin, 5 μg of asialo-ovine submaxillary mucins, and the indicated sugar concentrations. Inhibition was determined relative to the amount of precipitate formed in the control with no sugar added. All precipitation assays were conducted in duplicate to bring the tolerance within ±5% and the amount of precipitate formed average.

Chain of amaranthin (Q71QF2 entry or part of it): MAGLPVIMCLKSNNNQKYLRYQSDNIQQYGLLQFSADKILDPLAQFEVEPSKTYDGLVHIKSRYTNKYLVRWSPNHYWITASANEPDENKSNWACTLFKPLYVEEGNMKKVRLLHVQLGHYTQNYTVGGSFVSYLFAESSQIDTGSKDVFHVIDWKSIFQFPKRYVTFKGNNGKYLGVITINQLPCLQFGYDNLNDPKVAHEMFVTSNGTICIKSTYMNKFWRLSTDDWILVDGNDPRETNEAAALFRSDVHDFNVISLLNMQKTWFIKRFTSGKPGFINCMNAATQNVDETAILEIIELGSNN

SMILES: CC(=O)N[C@H]1[C@H](OC[C@H]2OC(O)[C@H](O)[C@@H](O)[C@H]2O)O[C@H](CO)[C@H](O)[C@@H]1O (stereo partly drawn) [GalNAcβ1,6Gal]
- IC50: 1000 µM
- Relative Inhibition potency ACA: 0.8

SMILES: CC(=O)N[C@H]1[C@@H](O[C@H]2[C@@H](O)[C@@H](CO)OC(O)[C@@H]2O)O[C@H](CO)[C@H](O)[C@@H]1O (stereo partly drawn) [GalNAcα1,3Gal]
- IC50: 310 µM
- Relative Inhibition potency ACA: 2.5

SMILES: COC(=O)[C@H](CO[C@H]1O[C@H](CO)[C@H](O)[C@H](O)[C@H]1NC(C)=O)NC(=O)OCc1ccccc1 [3-O-(2-N-acetyl-α-D-galactopyranosyl-N-(benzyloxcarbonyl)-L-serinemethyl ester]
- IC50: 53 µM
- Relative Inhibition potency ACA: 15

SMILES: CC(=O)N[C@H]1[C@@H](OCc2ccccc2)O[C@H](CF)[C@H](O)[C@@H]1O[C@@H]1O[C@H](CO)[C@H](O)[C@H](O)[C@H]1O [Galβ1,3[6-F]GalNAcα-O-benzyl]
- IC50: 1.7 µM
- inhibition of amaranthin/AOSM precipitation, in words: inhibition is equivalent to Galβ1,3GalNAca-O-benzyl
- Relative Inhibition potency ACA: 465

SMILES: CO[C@@H]1O[C@H](CO)[C@H](O)[C@H](O)[C@H]1NC(C)=O [Methyl N-acetyl-β-galactosaminide]
- IC50: 11300 µM
- Relative Inhibition potency ACA: 0.07

SMILES: CO[C@H]1O[C@H](CO)[C@H](O)[C@H](O)[C@H]1OC(C)=O [Methyl (2-O-acetyl)-α-galactoside]
- IC50: 2140 µM
- Relative Inhibition potency ACA: 0.4
- times less potent than GalNAcα-O--CH3 (inhibitor of amaranthin): 8.6

SMILES: CO[C@H]1O[C@H](CO)[C@H](O)[C@H](O)[C@H]1NC(=O)c1ccccc1 [Methyl (2-N-benzamido)-α-galactosaminide]
- IC50: 850 µM
- Relative Inhibition potency ACA: 0.9

SMILES: OC[C@H]1O[C@H](OC[C@H]2OC(O)[C@H](O)[C@@H](O)[C@@H]2O)[C@H](O)[C@@H](O)[C@H]1O (stereo partly drawn) [Galα1,6Glc]
- Relative Inhibition potency ACA: < 0.008

SMILES: CC(=O)N[C@H]1[C@H](Oc2ccc([N+](=O)[O-])cc2)O[C@H](CO)[C@H](O)[C@@H]1O [p-NitrophenylN-acetyl-β-Zgalactosaminide]
- Relative Inhibition potency ACA: < 0.3

SMILES: CC(=O)N[C@H]1C(O)O[C@H](CO)[C@@H](O)[C@@H]1O[C@@H]1O[C@H](CO)[C@H](O)[C@H](O)[C@H]1O (stereo partly drawn) [Galβ1,3GlcNAC]
- inhibition of amaranthin/AOSM precipitation, in words: very poor inhibitor
- Relative Inhibition potency ACA: < 0.08

SMILES: C=CCO[C@@H]1O[C@H](CO)[C@@H](O)[C@H](O[C@@H]2O[C@H](CO)[C@H](O)[C@H](O)[C@H]2O)[C@H]1NC(C)=O [Galβ1,3GlcNAcβ-O-CH2 --CH--CH2]
- Relative Inhibition potency ACA: < 0.08

SMILES: OC[C@H]1O[C@@H](O[C@H]2[C@H](O)[C@@H](O)C(O)O[C@@H]2CO)[C@H](O)[C@@H](O)[C@H]1O (stereo partly drawn) [Galβ1,4Glc]
- Relative Inhibition potency ACA: < 0.01

SMILES: CC(=O)N[C@H]1[C@@H](OC[C@H]2OC(O)[C@H](O)[C@@H](O)[C@H]2O)O[C@H](CO)[C@H](O)[C@@H]1O (stereo partly drawn) [GalNAcα1,6Gal]
- IC50: 210 µM
- Relative Inhibition potency ACA: 3.8

SMILES: N[C@H]1C(O)O[C@H](CO)[C@H](O)[C@@H]1O (stereo partly drawn) [Galactosamine]
- inhibition of amaranthin/AOSM precipitation, in words: very poor inhibitors
- Relative Inhibition potency ACA: < 0.002

SMILES: CO[C@@H]1C[C@@H](O)[C@@H](O)[C@@H](CO)O1 [Methyl (2-deoxy)-α-galactose]
- Relative Inhibition potency ACA: < 0.08

SMILES: CC(=O)N[C@H]1[C@@H](Oc2ccc([N+](=O)[O-])cc2)O[C@H](CO)[C@H](O)[C@@H]1O [p-NitrophenylN-acetyl-α-galactosiminide]
- IC50: 450 µM
- Relative Inhibition potency ACA: 1.8

SMILES: C[C@H]1OC(O)[C@H](O)[C@@H](O)[C@H]1O (stereo partly drawn) [D-Fucose]
- Relative Inhibition potency ACA: < 0.002
